Key:
Format in all cases: functional
[1] = tested on: Echinochloa crus-galli; assay: Herbicidal activity against Echinochloa crus-galli (barnyard grass) assessed as inhibition of plant growth at 10 ug/mL by cup test
[2] = tested on: Echinochloa crus-galli; assay: Herbicidal activity against Echinochloa crus-galli (barnyard grass) assessed as inhibition of plant growth at 375 g/ha applied as pre-emergence treatment; details: Echinochloa crus-galli, pre-emergence
[3] = tested on: Echinochloa crus-galli; assay: Herbicidal activity against Echinochloa crus-galli (barnyard grass) assessed as inhibition of plant growth at 750 g/ha applied as pre-emergence treatment; details: Echinochloa crus-galli, pre-emergence
[4] = tested on: Echinochloa crus-galli; assay: Herbicidal activity against Echinochloa crus-galli (barnyard grass) assessed as inhibition of plant growth at 93.75 g/ha applied as pre-emergence treatment; details: for inhibition at 93.75 g/ha: Echinochloa crus-galli, pre-emergence
[5] = tested on: Echinochloa crus-galli; assay: Herbicidal activity against Echinochloa crus-galli (barnyard grass) assessed as inhibition of plant growth at 187.5 g/ha applied as pre-emergence treatment; details: for inhibition at 187.5 g/ha: Echinochloa crus-galli, pre-emergence
[6] = tested on: Digitaria sanguinalis; assay: Herbicidal activity against Digitaria sanguinalis (hairy crabgrass) assessed as inhibition of plant growth at 750 g/ha applied as pre-emergence treatment; details: Digitaria sanguinalis, pre-emergence; tested as the Zn salt or complex
[7] = tested on: Digitaria sanguinalis; assay: Herbicidal activity against Digitaria sanguinalis (hairy crabgrass) assessed as inhibition of plant growth at 93.75 g/ha applied as pre-emergence treatment; details: Digitaria sanguinalis, pre-emergence; tested as the Zn salt or complex
[8] = tested on: Digitaria sanguinalis; assay: Herbicidal activity against Digitaria sanguinalis (hairy crabgrass) assessed as inhibition of plant growth at 187.5 g/ha applied as pre-emergence treatment; details: Digitaria sanguinalis, pre-emergence; tested as the Zn salt or complex
[9] = tested on: Digitaria sanguinalis; assay: Herbicidal activity against Digitaria sanguinalis (hairy crabgrass) assessed as inhibition of plant growth at 375 g/ha applied as pre-emergence treatment; details: Digitaria sanguinalis, pre-emergence; tested as the Zn salt or complex
[10] = tested as the Zn salt or complex

Compound	inhibition at 10 µg/mL [1] [%]	also measured
Cc1cccc(/C(O)=C2\C(=O)CN(C(C)C)C2=O)c1	49	–
Cc1cccc(/C(O)=C2\C(=O)CN(C)C2=O)c1	25	–
CC(C)N1CC(=O)/C(=C(/O)c2ccccc2Cl)C1=O	51	–
CCC(C)N1CC(=O)/C(=C(/O)c2cc(OC)c(OC)cc2OC)C1=O (stereo not given)	18	–
CCOc1ccc(/C(O)=C2\C(=O)C(C)N(C(C)C)C2=O)c(OC)c1 (stereo not given)	32	–
COc1ccc(/C(O)=C2\C(=O)CN(C(C)(C)C)C2=O)cc1	10	inhibition at 375 g/ha [2]: 0%; inhibition at 750 g/ha [3]: 14%; inhibition at 93.75 g/ha [4]: 0%; inhibition at 187.5 g/ha [5]: 0%
Cc1cccc(/C(O)=C2\C(=O)CN(Cc3ccccc3)C2=O)c1	12	–
Cc1cccc(/C(O)=C2\C(=O)CN(C(C)(C)C)C2=O)c1	5	–
COc1ccccc1/C(O)=C1\C(=O)CN(C(C)C)C1=O	77	inhibition at 375 g/ha [2]: 28%; inhibition at 750 g/ha [3]: 73%; inhibition at 93.75 g/ha [4]: 0%; inhibition at 187.5 g/ha [5]: 0%
CCCCCc1ccc(/C(O)=C2\C(=O)CN(C(C)C)C2=O)cc1	6	–
CCCCCc1ccc(/C(O)=C2\C(=O)CN(C3CC3)C2=O)cc1	5	–
CCC(C)N1CC(=O)/C(=C(/O)c2ccc(OC)cc2)C1=O (stereo not given)	64	–
CCCCOc1ccc(/C(O)=C2\C(=O)CN(C(C)C)C2=O)cc1	21	–
CCCCOc1ccc(/C(O)=C2\C(=O)CN(C(C)CC)C2=O)cc1 (stereo not given)	28	–
COc1ccccc1/C(O)=C1\C(=O)CN(C(C)(C)C)C1=O	75	–
CCCc1ccc(/C(O)=C2\C(=O)CN(C(C)CC)C2=O)cc1 (stereo not given)	18	–
CC(C)(C)c1ccc(/C(O)=C2\C(=O)CN(C(C)(C)C)C2=O)cc1	4	–
CCC(C)N1CC(=O)/C(=C(/O)c2ccc(OC(C)C)cc2OC)C1=O (stereo not given)	33	–

Compound	inhibition at 10 µg/mL [1] [%]	also measured
CCC(C)N1CC(=O)/C(=C(/O)c2ccc(OC(C)C)cc2)C1=O (stereo not given)	46	–
CCOc1ccc(/C(O)=C2\C(=O)CN(C3CC3)C2=O)cc1	78	–
O=C1CN(Cc2ccccc2)C(=O)/C1=C(\O)c1ccccc1	2	inhibition at 375 g/ha [2]: 0%; inhibition at 750 g/ha [3]: 0%; inhibition at 93.75 g/ha [4]: 0%; inhibition at 187.5 g/ha [5]: 0%
Cc1ccc(/C(O)=C2\C(=O)CN(C(C)(C)C)C2=O)cc1	36	–
COc1ccc(/C([O-])=C2\C(=O)CN(C(C)C)C2=O)c(OC)c1.COc1ccc(/C([O-])=C2\C(=O)CN(C(C)C)C2=O)c(OC)c1.[Zn+2]	–	inhibition at 750 g/ha [6]: 100%; inhibition at 375 g/ha [2, 10]: 100%; inhibition at 93.75 g/ha [7]: 15%; inhibition at 750 g/ha [3, 10]: 100%; inhibition (INH) [4]: 72%; inhibition (INH) [5]: 85%; inhibition at 187.5 g/ha [8]: 82%; inhibition at 375 g/ha [9]: 100%
Cc1cc(C)cc(/C(O)=C2\C(=O)CN(C(C)C)C2=O)c1	22	–
COc1ccc(C(=O)C2=C(O)N(C(C)C)CCC2=O)c(OC)c1	6	–
C=CCOc1ccc(/C(O)=C2\C(=O)CN(C(C)C)C2=O)c(OC)c1	77	–
Cc1ccc(/C(O)=C2\C(=O)CN(C(C)C)C2=O)c(C)c1	74	–
CCC(C)N1CC(=O)/C(=C(/O)c2cccc(Oc3ccccc3)c2)C1=O (stereo not given)	58	–
CN1CC(=O)/C(=C(/O)c2cccc(Oc3ccccc3)c2)C1=O	53	–
CCCCOc1cccc(/C(O)=C2\C(=O)CN(C(C)C)C2=O)c1	47	–
COc1ccc(/C(O)=C2\C(=O)CN(C(C)C)C2=O)cc1	80	–
CCC(C)N1CC(=O)/C(=C(/O)c2ccc(OC)c(OC)c2)C1=O (stereo not given)	9	–
CCOc1ccc(/C(O)=C2\C(=O)CN(C(C)C)C2=O)c(OCC)c1	26	–
CCCCOc1cccc(/C(O)=C2\C(=O)CN(C(C)CC)C2=O)c1 (stereo not given)	32	–
COc1cc(OC(C)C)ccc1/C(O)=C1\C(=O)CN(C(C)C)C1=O	57	–
COc1cc(OC(C)C)ccc1/C(O)=C1\C(=O)C(C)N(C(C)C)C1=O (stereo not given)	9	–

From ChEMBL document CHEMBL3045542, “A quantitative structure-activity relationship study of herbicidal analogues of alpha-hydroxy-substituted 3-benzylidenepyrrolidene-2,4-diones” (2006)
